{
  "source": "patent EP0476658B1",
  "about": "“1-Phenyl-3-phenyl-2-propyne-1-ones” (MERRELL DOW PHARMACEUTICALS INC., priority 1990, dated 1992)",
  "key": {"Rat PMNL [1]": {"tested_on": "Rat PMNL", "test": "Myeloperoxidase (MPO) release from stimulated PMNL", "format": "cell-based", "settings": "fMLP (with cytochalasin B), opsonized zymosan or ionomycin stimulation", "procedure": "(§1) Rat PMNL were obtained from exudates resulting from peritoneal injection of 6 mL of 8% sodium caseinate. Eighteen hours after injection rats were killed by carbon dioxide inhalation and the peritoneal cavity lavaged with Hank's balanced salt solution (HBSS). After concentration of the PMNL by centrifugation, contaminating erythrocytes were removed by hypotonic lysis. The PMNL were then washed twice by centrifugation (400 x g for 10 minutes) and resuspended in HBSS. Cell viability was greater than 90% by Trypan Blue exclusion and greater than 90% of the cells were PMNL by Wright-Giemsa stain.\nMPO release was determined using the MPO catalyzed oxidation of O-dianisidine. The experiments were carried out in 96-well microtiter plates (Webster and Henson, 1978). In each well, 50 microliter (µl) aliquots of a PMNL suspension (2 x 10⁷ cells/mL in HBSS) were incubated with 50 µl of HBSS containing vehicle (0.3% DMSO) or inhibitor for 30 minutes at 37°C. The final DMSO concentration never exceeded 0.3% and was constant throughout each experiment. […] The stimuli were added in 50 µl HBSS which also contained the compounds or vehicle, as appropriate, to avoid changing the inhibitor concentration. Cell activation was terminated by centrifugation of the plates at 600 x g for 5 minutes at 22°C. […] Absorbances of the samples were measured at 450 nm. […]"}, "[2]": {"tested_on": "Mustard Oil-Induced Mouse Ear Edema", "test": "Mustard oil-induced mouse ear edema", "format": "in vivo", "settings": "30 minutes prior to mustard oil, ear weight 30 minutes after, male CD-1 mice", "procedure": "Charles River male CD-1 mice weighing 30-60 grams were divided into randomized groups. They were dosed i.p. for 30 minutes prior or orally 1 hour prior to application of 20 ul of mustard oil (10% isothiocyanate in acetone) to the right ear. After 30 minutes the mice were sacrificed and an 8 millimeter diameter circular punch biopsy of each ear was obtained and weighed. The difference between the left (control) and right (treated) ear weights were expressed as percent increase."}, "[3]": {"tested_on": "Carrageenin-Induced Rat Paw Edema", "test": "Carrageenin-induced rat paw edema", "format": "in vivo", "settings": "75 mg/Kg i.p. one hour prior to carrageenin; paw volume three hours after; male Sprague Dawley rats", "procedure": "Charles River male Sprague Dawley rats weighing 90 to 100 grams were used. Inflammation of the left hind paw was induced by a 1% carrageenin solution (0.05 cc), injected into the plantar surface of the paw. The contralateral paw was injected with an equal volume of saline. Drugs were administered 75 mg/Kg i.p. (1 cc/100 grams) one hour prior to paw injection. Three hours following the carrageenin injection the difference in volume of the control and inflamed paw was measured. Each paw was immersed in a well of mercury and the volume of mercury displaced was recorded. Paws were uniformly dipped into the mercury up to the beginning of the hairline. A venous pressure transducer, coupled to an chart recorder, was employed to measure the small volumes of mercury displaced. Each group measurement consists of the average of four rats, each with three separate measurements."}, "Rat PMNL [4]": {"tested_on": "Rat PMNL", "test": "Superoxide anion (SOA) production by stimulated PMNL", "format": "cell-based", "procedure": "as §1\nAliquots (50 µl) of a rat PMNL suspension (2 x 10⁷ cells/mL in HBSS) were incubated with 50 µl of HBSS containing vehicle (0.3% DMSO) or compound for 30 minutes at 37°C as above. One hundred microliters of buffer containing 5.98 mg/mL of cytochrome C (Sigma Type III) and 0.1 mg/mL catalase, plus the compounds where appropriate, were then added to each sample. A blank for spectrophotometric measurement, containing unstimulated cells in the presence of cytochrome C, catalase and SOD, was also prepared. […] Aliquots (200 µl) of supernatant were then transferred to a second, flat-well microtiter plate and measured spectrophotometrically at 550 nm. […]"}, "Rat PMNL [5]": {"tested_on": "Rat PMNL", "test": "Measurement of intracellular calcium (Fura-2) in fMLP-stimulated PMNL", "format": "cell-based", "settings": "preincubation of PMNL with compound 15 minutes at 37°C, fMLP stimulus; second wave = influx of extracellular calcium", "procedure": "as §1\nIntracellular calcium levels were obtained using Fura-2 as fluorescent indicator (Grynkiewicz et al., 1985). Fura-2 was loaded into PMNL as the acetoxymethyl ester (Fura-2/AM) using the method of Korchak et al., (1988). Specifically, 1 X 10⁸ PMNL/mL were incubated in HBSS with 10 µM Fura-2/AM for 10 minutes at 37°C. The cells suspension was then diluted ten fold with HBSS and further incubated for another 20 minutes. The cells were then centrifuged (400 x g for 8 minutes at 25°C) and the PMNL (1 x 10⁷ cells/mL) resuspended in HBSS containing 1% bovine serum albumin. Cells were stored at room temperature and used within 3 hours.\nIntracellular calcium level determinations were made using a dual wavelength spectrofluorometer (Photon Technology International, New Brunswick, NJ). […]"}},
  "data": [
    {"smiles": "CN(C)c1ccc(C(=O)C#Cc2ccncc2)cc1", "note": "[MDL 102,175, 1-(4-dimethylaminophenyl)-3-(4-pyridinyl)-2-propynel-1-one]", "values": [
      {"measurement": "inhibition of release of myeloperoxidase", "setting": "Rat PMNL [1]", "value": "dose dependent inhibition"}
    ]},
    {"smiles": "COc1ccc(COc2cccc(C#CC(=O)c3ccccc3)c2)cc1", "note": "[MDL 100,225, 1-phenyl-3-[3-(4-methoxybenzyloxy)phenyl]-2-propyne-1-one]", "values": [
      {"measurement": "%Inhibition", "setting": "[2]; 10 mg/Kg i.p.", "value": "25.3 ± 17.8", "unit": "%"},
      {"measurement": "%Inhibition", "setting": "[2]; 30 mg/Kg i.p.", "value": "33.4 ± 14.6", "unit": "%"},
      {"measurement": "%Inhibition", "setting": "[2]; 100 mg/Kg i.p.", "value": "60.9 ± 11.7", "unit": "%"},
      {"measurement": "%Inhibition", "setting": "[3]", "value": "24.3% ± 10.3%"}
    ]},
    {"smiles": "O=C(C#Cc1ccncc1)c1ccccc1", "note": "[MDL 101,098, 1-phenyl-3-(4-pyridinyl)-2-propyne-1-one]", "values": [
      {"measurement": "inhibition of superoxide anion production", "setting": "Rat PMNL [4]; PMA and OZ stimulation", "value": "inhibited in a dose dependent fashion"},
      {"measurement": "inhibition at 1 µM", "setting": "Rat PMNL [4]; Rattus norvegicus, PMNL, inhibition of superoxide anion production, PMA, CONC 1 uM", "value": -20.7, "unit": "%"}
    ]},
    {"smiles": "O=C(C#Cc1ccc(OCc2ccccc2)cc1)c1ccccc1", "note": "[MDL 101,097, 1-phenyl-3-[(4-benzyloxy)phenyl]-2-propyne-1-one]", "values": [
      {"measurement": "effect on fMLP-induced intracellular calcium changes", "setting": "Rat PMNL [5]", "value": "selective concentration-dependent suppression of the second wave of intracellular calcium changes"}
    ]}
  ]
}
